Among the data in patent US10344039B2, “Macrocyclic spirocarbamate derivatives as factor XIa inhibitors, pharmaceutically acceptable compositions and their use” (MERCK SHARP & DOHME CORP., priority 2015, dated 2019) are Ki values, retold here.

T1 sequence (P03951 388-625 limits assumed): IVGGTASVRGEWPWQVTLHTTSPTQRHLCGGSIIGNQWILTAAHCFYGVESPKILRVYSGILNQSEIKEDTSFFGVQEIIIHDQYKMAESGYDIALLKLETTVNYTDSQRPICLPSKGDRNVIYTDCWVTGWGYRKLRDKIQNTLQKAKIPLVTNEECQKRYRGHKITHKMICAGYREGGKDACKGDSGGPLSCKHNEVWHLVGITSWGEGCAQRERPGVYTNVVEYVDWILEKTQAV
T1 sequence (P03951 19-387 partner limits assumed): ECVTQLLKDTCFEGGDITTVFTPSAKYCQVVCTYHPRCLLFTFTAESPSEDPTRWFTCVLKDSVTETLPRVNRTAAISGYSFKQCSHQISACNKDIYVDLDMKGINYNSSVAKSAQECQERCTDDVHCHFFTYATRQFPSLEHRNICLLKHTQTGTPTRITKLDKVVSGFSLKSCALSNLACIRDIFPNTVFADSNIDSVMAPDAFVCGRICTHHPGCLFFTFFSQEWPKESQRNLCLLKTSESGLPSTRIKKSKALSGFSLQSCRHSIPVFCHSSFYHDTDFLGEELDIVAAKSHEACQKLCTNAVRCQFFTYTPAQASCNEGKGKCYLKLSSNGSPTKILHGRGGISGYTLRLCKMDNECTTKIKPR

The experiment concerns the target T1, purified human Factor XIa (Homo sapiens, UniProt P03951).
T1 construct: purified human Factor XIa; purchased Sekisui Diagnostics
In words: Factor XIa Assay. It counts as biochemical. As to conditions: purified human Factor XIa 40 pM; substrate Z-Gly-Pro-Arg-AFC 100 μM; 50 mM HEPES pH 7.4; read-out: Hu FXIa Ki. As to the method:
The effectiveness of a compound of the present invention as an inhibitor of Coagulation Factor XIa can be determined using a relevant purified serine protease, and an appropriate synthetic substrate. The rate of hydrolysis of the chromogenic or fluorogenic substrate by the relevant serine protease was measured both in the absence and presence of compounds of the present invention. Assays were conducted at room temperature or at 37° C. […] A decrease in the rate of fluorescence change in the presence of inhibitor is indicative of enzyme inhibition. Such methods are known to one skilled in the art. The results of this assay are expressed as the inhibitory constant, Ki.
Factor XIa determinations were made in 50 mM HEPES buffer at pH 7.4 containing 150 mM NaCl, 5 mM CaCl2, and 0.1% PEG 8000 (polyethylene glycol; JT Baker or Fisher Scientific). Determinations were made using purified human Factor XIa at a final concentration of 40 pM (Sekisui Diagnostics) and he synthetic substrate, Z-Gly-Pro-Arg-AFC, TFA salt (Sigma #C0980) at a concentration of 100 μM.
Activity assays were performed by diluting a stock solution of substrate at least tenfold to a final concentration ≤0.1 Km into a solution containing enzyme or enzyme equilibrated with inhibitor. Times required to achieve equilibration between enzyme and inhibitor were determined in control experiments. Initial velocities of product formation in the absence (Vo) or presence of inhibitor (Vi) were measured. Assuming competitive inhibition, and that unity is negligible compared Km/[S], [I]/e, and [I]/e (where [S], [I], and e respectively represent the total concentrations, of substrate, inhibitor and enzyme), the equilibrium constant (Ki) for dissociation of the inhibitor from the enzyme can be obtained from the dependence of Vo/Vi on [I] shown in the following equation. Vo/Vi=1+[I]/Ki
The activities shown by this assay indicate that the compounds of the invention may be therapeutically useful for treating or preventing various cardiovascular and/or cerebrovascular thromboembolic conditions in patients suffering from unstable angina, acute coronary syndrome, refractory angina, myocardial infarction, transient ischemic attacks, atrial fibrillation, stroke such as thrombotic stroke or embolic stroke, venous thrombosis, coronary and cerebral arterial thrombosis, cerebral and pulmonary embolism, atherosclerosis, deep vein thrombosis, disseminated intravascular coagulation, and reocclusion or restenosis of recanalized vessels. The Ki values measured for each of the example compounds of the invention using this assay are reported in the tables above (as “Hu FXIa Ki (nM)”).
What is called Ki is the equilibrium dissociation constant of an inhibitor or competing ligand from its target. Regarding `COC(=O)Nc1ccc2c(c1)NC(=O)[C@H](C)CCC[C@H](C(=O)N1CCC[C@@]3(C1)OC(=O)Nc1ccc(Cl)c(F)c13)C1=NC=C2O1` [Example 14b, methyl ((5R,9S)-9-((R)-6-chloro-5-fluoro-2-oxo-1,2-dihydrospiro[benzo[d][1,3]oxazine-4,3′-piperidine]-1′-carbonyl)-5-methyl-4-oxo-3-aza-1(5,2)-oxazola-2(1,2)-benzenacyclononaphane-2^4-yl)carbamate], the inhibition constant Ki was found to be 217 nM.

On to `O=C1Nc2ccc(Cl)c(F)c2[C@@]2(CCN(C(=O)C3CCCCC(C(=O)O)Nc4ccc(F)cc4-c4ccnc3c4)C2)O1` (single isomer, unassigned) [Example 37a], for which the Ki was more than 875 nM. Take `CCOC(=O)C1CCCCC(C(=O)N2CCC[C@@]3(C2)OC(=O)Nc2ccc(Cl)c(F)c23)c2cc(ccn2)-c2cc(F)ccc2N1` (single isomer, unassigned) [Example 34b]: the Ki was more than 875 nM.

With `COC(=O)Nc1ccc2c(c1)NC(=O)C(C)CCCC(C(=O)N1CCC[C@@]3(C1)OC(=O)Nc1ccc(Cl)cc13)c1cc-2ccn1` (single isomer, unassigned) [Example 15b], the Ki came out at 749 nM. Consider `COC(=O)Nc1ccc2c(c1)NC(=O)CCCC[C@H](C(=O)N1CC[C@@]3(C1)OC(=O)Nc1ccc(Cl)c(F)c13)c1ccnc-2c1` [Example 25b, methyl ((S)-9-((R)-6-chloro-5-fluoro-2-oxo-1,2-dihydrospiro[benzo[d][1,3]oxazine-4,3′-pyrrolidine]-1′-carbonyl)-4-oxo-3-aza-1(2,4)-pyridina-2(1,2)-benzenacyclononaphane-2^4-yl)carbamate], for which the Ki was more than 875 nM. As to `COC(=O)Nc1ccc2c(c1)NC(=O)CCCC[C@H](C(=O)N1CC[C@@]3(C1)OC(=O)Nc1ccc(Cl)cc13)c1nc-2c[nH]1` (single isomer, unassigned) [Example 1b], the Ki came out at 258 nM.

As for `COC(=O)Nc1ccc2c(c1)NC(=O)CCCC[C@H](C(=O)N1CCC[C@@]3(C1)OC(=O)Nc1ccc(Cl)cc13)c1nc-2c(Cl)[nH]1` [Example 7b, methyl ((S,Z)-1^5-chloro-9-((R)-6-chloro-2-oxo-1,2-dihydrospiro[benzo[d][1,3]oxazine-4,3′-piperidine]-1′-carbonyl)-4-oxo-1^1H-3-aza-1(4,2)-imidazola-2(1,2)-benzenacyclononaphane-2^4-yl)carbamate], the Ki was 1830 nM.

`CCOC(=O)C1CCCCC(C(=O)N2CCC[C@@]3(C2)OC(=O)Nc2ccc(Cl)c(F)c23)c2cc(ccn2)-c2cc(F)ccc2N1` (single isomer, unassigned) [Example 34c]: the Ki came to 196 nM. Regarding “(R)-6-chloro-1′-((R,Z)-2^4-fluoro-4-oxo-11H-3-aza-1(4,2)-imidazola-2(1,2)-benzenacyclononaphane-9-carbonyl)spiro[benzo[d][1,3]oxazine-4,3′-pyrrolidin]-2(1H)-one [Example 5b]”, the Ki is 180 nM. For `COC(=O)Nc1ccc2c(c1)NC(=O)CCCCC[C@@H](C(=O)N1CCC[C@@]3(C1)OC(=O)Nc1ccc(Cl)c(F)c13)c1cc-2ccn1` [Example 19a, methyl ((R)-10-((R)-6-chloro-5-fluoro-2-oxo-1,2-dihydrospiro[benzo[d][1,3]oxazine-4,3′-piperidine]-1′-carbonyl)-4-oxo-3-aza-1(4,2)-pyridina-2(1,2)-benzenacyclodecaphane-2^4-yl)carbamate], the Ki came to 49 nM. `COC(=O)Nc1ccc2c(c1)NC(=O)CCCCC[C@H](C(=O)N1CC[C@@]3(C1)OC(=O)Nc1ccc(Cl)c(F)c13)c1cc-2ccn1` [Example 18b, methyl ((S)-10-((R)-6-chloro-5-fluoro-2-oxo-1,2-dihydrospiro[benzo[d][1,3]oxazine-4,3′-pyrrolidine]-1′-carbonyl)-4-oxo-3-aza-1(4,2)-pyridina-2(1,2)-benzenacyclodecaphane-2^4-yl)carbamate]: the Ki is 198 nM. For the compound `CCOC(=O)C1CCCCC(C(=O)N2CCC[C@@]3(C2)OC(=O)Nc2ccc(Cl)c(F)c23)c2nc(c[nH]2)-c2ccc(NC(=O)OC)cc2N1` (single isomer, unassigned) [Example 32a], the Ki worked out at 143 nM. The value for `O=C1Nc2ccc(Cl)c(F)c2[C@@]2(CCCN(C(=O)C3CCCCC(C(=O)O)Nc4ccc(F)cc4-c4ccnc3c4)C2)O1` (single isomer, unassigned) [Example 35a] was more than 875 nM.

Take `COC(=O)Nc1ccc2c(c1)NC(C(=O)O)CCCCC(C(=O)N1CCC[C@@]3(C1)OC(=O)Nc1ccc(Cl)c(F)c13)c1nc-2c[nH]1` (stereo partly drawn) [Example 33, (Z)-9-((R)-6-chloro-5-fluoro-2-oxo-1,2-dihydrospiro[benzo[d][1,3]oxazine-4,3′-piperidine]-1′-carbonyl)-2^4-((methoxycarbonyl)amino)-1^1H-3-aza-1(4,2)-imidazola-2(1,2)-benzenacyclononaphane-4-carboxylic acid]: the Ki turned out to be 136 nM.

For `COC(=O)Nc1ccc2c(c1)NC(=O)CCCC[C@@H](C(=O)N1CCC[C@@]3(C1)OC(=O)Nc1ccc(Cl)cc13)c1cc(F)cc-2c1` [Example 29a, methyl ((R)-9-((R)-6-chloro-2-oxo-1,2-dihydrospiro[benzo[d][1,3]oxazine-4,3′-piperidine]-1′-carbonyl)-1^5-fluoro-4-oxo-3-aza-1(1,3),2(1,2)-dibenzenacyclononaphane-2^4-yl)carbamate], the Ki stood at 222 nM. Turning to `COC(=O)Nc1ccc2c(c1)NC(=O)CCCCC[C@H](C(=O)N1CCC[C@@]3(C1)OC(=O)Nc1ccc(Cl)c(F)c13)c1cc-2ccn1` [Example 19b, methyl ((S)-10-((R)-6-chloro-5-fluoro-2-oxo-1,2-dihydrospiro[benzo[d][1,3]oxazine-4,3′-piperidine]-1′-carbonyl)-4-oxo-3-aza-1(4,2)-pyridina-2(1,2)-benzenacyclodecaphane-2^4-yl)carbamate], the Ki is more than 875 nM.

For the compound `COC(=O)Nc1ccc2c(c1)NC(=O)CCCC[C@H](C(=O)N1CCC[C@@]3(C1)OC(=O)Nc1ccc(Cl)c(F)c13)c1nc-2c(C)[nH]1` (single isomer, unassigned) [Example 12a], the Ki amounted to 471 nM. The value for `O=C1Nc2ccc(Cl)c(F)c2[C@@]2(CCCN(C(=O)C3CCCCC(C(=O)O)Nc4ccc(F)cc4-c4ccnc3c4)C2)O1` (single isomer, unassigned) [Example 35b] was more than 875 nM. For `COC(=O)Nc1ccc2c(c1)NC(=O)CCCCC[C@H](C(=O)N1CCC[C@@]3(C1)OC(=O)Nc1ccc(Cl)cc13)c1cc-2ccn1` [Example 16a, methyl ((S)-10-((R)-6-chloro-2-oxo-1,2-dihydrospiro[benzo[d][1,3]oxazine-4,3′-piperidine]-1′-carbonyl)-4-oxo-3-aza-1(4,2)-pyridina-2(1,2)-benzenacyclodecaphane-2^4-yl)carbamate], the Ki was more than 875 nM. `COC(=O)Nc1ccc2c(c1)NC(=O)CCCC[C@H](C(=O)N1CC[C@@]3(C1)OC(=O)Nc1ccc(Cl)c(F)c13)c1nc-2c(C)[nH]1` [Example 13a, methyl ((S,Z)-9-((R)-6-chloro-5-fluoro-2-oxo-1,2-dihydrospiro[benzo[d][1,3]oxazine-4,3′-pyrrolidine]-1′-carbonyl)-1^5-methyl-4-oxo-1^1H-3-aza-1(4,2)-imidazola-2(1,2)-benzenacyclononaphane-2^4-yl)carbamate]: the Ki was determined as 195 nM. The value for `CCOC(=O)C1CCCCC(C(=O)N2CCC[C@@]3(C2)OC(=O)Nc2ccc(Cl)c(F)c23)c2nc(c[nH]2)-c2ccc(NC(=O)OC)cc2N1` (single isomer, unassigned) [Example 32c] was 536 nM.
